This data set in a line: Dissociation constant, pKa of the compound. The format is physicochemical.

Molecules are shown by their SMILES.

With `NC(=O)CNC1CCC(OCc2cc(C(F)(F)F)cc(C(F)(F)F)c2)C1c1ccccc1` (configuration not stated), the pKa came out at 6.6.

In the case of `C[C@@H](O[C@H]1CC[C@@H](N(C)Cc2c[nH]c(O)n2)[C@@H]1c1ccc(F)cc1)c1cc(C(F)(F)F)cc(C(F)(F)F)c1`, the pKa was determined as 6.2.

Regarding `C[C@@H](O[C@H]1CC[C@@H](N(C)CC(N)=O)[C@@H]1c1ccc(F)cc1)c1cc(C(F)(F)F)cc(C(F)(F)F)c1`, the pKa was found to be 5.3.

The compound `CN(CC(N)=O)C1CCC(OCc2cc(C(F)(F)F)cc(C(F)(F)F)c2)C1c1ccccc1` (configuration not stated) gave a pKa of 5.8.

Regarding `C[C@@H](O[C@H]1CC[C@@H](N(C)Cc2n[nH]c(O)n2)[C@@H]1c1ccc(F)cc1)c1cc(C(F)(F)F)cc(C(F)(F)F)c1`, the pKa worked out at 4.7.

Compound `CNC(=O)CN(C)[C@@H]1CC[C@H](O[C@H](C)c2cc(C(F)(F)F)cc(C(F)(F)F)c2)[C@H]1c1ccc(F)cc1` displayed a pKa of 5.3.

`C[C@@H](O[C@H]1OCCN(Cc2n[nH]c(=O)[nH]2)[C@H]1c1ccc(F)cc1)c1cc(C(F)(F)F)cc(C(F)(F)F)c1` [APREPITANT] returned a pKa of under 3.5.

The pKa is the negative logarithm of the acid dissociation constant.

Source of the values: ChEMBL document CHEMBL1148682, “Cyclopentane-based human NK1 antagonists. Part 2: development of potent, orally active, water-soluble derivatives” (Bioorg Med Chem Lett, 2006).
